Measured values as given in patent US20200009029A1, “COSMETIC COMPOSITION COMPRISING WATER DEPLETED IN 2H AND 18O ISOTOPS” (MEDENA AG, priority 2016, published 2020).

Experiments:
[1] = Superoxide scavenging activity (antioxidant capacity), superoxide dismutase dependent reduction of cytochrome c; format: biochemical
[2] = Stability of verbascoside in merystem cell homogenate / carboxyl methyl cellulose mixture over thirty days (HPLC); format: physicochemical; details: 0.1 weight-% carboxyl methyl cellulose, initial 100 μM, darkness, 25° C., 30 days
Experimental: Merystem plant cells containing highly oxydisable active principles such as polyphenols (in this example verbascoside) were homogenized in ^18O and ^2H depleted (De-O,D) water having a concentration of 99.894 weight-% (and for comparison in distilled natural water). A hydrogel-forming substance, namely carboxyl methyl cellulose was added to the solutions in a concentration of 0.1 weight-%. The final concentration of verbascoside in the mixture was determined to be 100 μM by HPLC method using chromatographic standard of verbascoside. This concentration corresponds to 6 mg/100 ml or 0.006 weight-%. The maximum of the absorbance spectrum was obtained at 278 nm and retention time 15.65 min. The mixture was left in darkness at room temperature (25° C.) for thirty days. After this period, the mixture was analyzed for the presence and concentration of verbascoside.

## C[C@@H]1O[C@@H](O[C@@H]2[C@@H](O)[C@H](OCCc3ccc(O)c(O)c3)O[C@H](CO)[C@H]2OC(=O)/C=C/c2ccc(O)c(O)c2)[C@H](O)[C@H](O)[C@H]1O [verbascoside]
[1]; mixture in natural water, day 30
  superoxide scavenging activity (antioxidant capacity): not measurable
[1]; mixture with De-O,D water, carboxy methyl cellulose and merystem cell homogenate, to day 30
  superoxide scavenging activity (antioxidant capacity): remained practically unchanged
[1]; mixtures of Example 1, day 0
  superoxide scavenging activity (antioxidant capacity): possessed superoxide scavenging activity
[2]; mixture in 18O and 2H depleted (De-O,D) water
  presence and concentration of verbascoside after thirty days (HPLC): retained practically the initial levels
[2]; mixture in distilled natural water
  presence and concentration of verbascoside after thirty days (HPLC): did not contain any measurable amounts
